Measured values as given in US20240116985A1, “STAPLED PEPTIDES AND METHODS THEREOF” (priority 2020, published 2024).

Assay: CHI Log D procedure
Assay type: physicochemical
Settings: for CHI Log D: pH 7.4

SMILES	CHI Log D	chromatographic logD (pH 7.4, CHI Log D)	also measured
CC(=O)N[C@@H](Cc1ccccc1)C(=O)N[C@@H](CC(=O)O)C(=O)N[C@@H](C)C(=O)N[C@]1(C)CN(C)C(=O)OCC=CCCCCCC[C@@](C)(C(=O)N[C@@H](Cc2ccccc2)C(=O)N[C@@H](Cc2c[nH]c3ccccc23)C(=O)N[C@@H](CCC(N)=O)C(N)=O)NC(=O)[C@H](C(C)C)NC(=O)[C@H](Cc2ccccc2)NC(=O)[C@H](C)NC(=O)[C@H](C)NC(=O)[C@H](CC(=O)O)NC(=O)[C@H](CC(=O)O)NC1=O (single isomer, unassigned) [I-44, Ac-Phe-Asp-Ala-RgN-Asp-Asp-Ala-Ala-Phe-Val-S8-Phe-Trp-Gln-NH2]	1.312		
CC(=O)N[C@@H](Cc1ccccc1)C(=O)N[C@@H](CC(=O)O)C(=O)N[C@@H](C)C(=O)N[C@]1(C)CCCCCCC=CCOC(=O)N2CC[C@@](C(=O)N[C@@H](Cc3ccccc3)C(=O)N[C@@H](Cc3c[nH]c4ccccc34)C(=O)N[C@@H](CCC(N)=O)C(N)=O)(C2)NC(=O)[C@H](C(C)C)NC(=O)[C@H](Cc2ccccc2)NC(=O)[C@H](C)NC(=O)[C@H](C)NC(=O)[C@H](CC2CCCCC2)NC(=O)[C@H](CC(=O)O)NC1=O (single isomer, unassigned) [I-15, Ac-Phe-Asp-Ala-R8-Asp-Cha-Ala-Ala-Phe-Val-PyrS-Phe-Trp-Gln-NH2]		2.21	
CC(=O)N[C@@H](Cc1ccccc1)C(=O)N[C@@H](CC(=O)O)C(=O)N[C@@H](C)C(=O)N[C@]1(C)CCCCCCC=CCOC(=O)N2CC[C@@](C(=O)N[C@@H](Cc3ccccc3)C(=O)N[C@@H](Cc3c[nH]c4ccccc34)C(=O)N[C@@H](CCC(N)=O)C(N)=O)(C2)NC(=O)[C@H](C(C)C)NC(=O)[C@H](Cc2ccc3ccccc3c2)NC(=O)[C@H](C)NC(=O)[C@H](C)NC(=O)[C@H](CC(=O)O)NC(=O)[C@H](CC(=O)O)NC1=O (single isomer, unassigned) [I-112, Ac-Phe-Asp-Ala-R8-Asp-Asp-Ala-Ala-2NapA-Val-PyrS-Phe-Trp-Gln-NH2]		1.4	
CC(=O)N[C@@H](Cc1ccccc1)C(=O)N[C@@H](CC(=O)O)C(=O)N[C@@H](C)C(=O)N[C@]1(C)CCCCCCC=CCOC(=O)N2CC[C@@](C(=O)N[C@@H](Cc3ccccc3)C(=O)N[C@@H](Cc3c[nH]c4ccccc34)C(=O)N[C@@H](CCC(N)=O)C(N)=O)(C2)NC(=O)[C@H](C(C)C)NC(=O)[C@H](Cc2cccc(F)c2)NC(=O)[C@H](C)NC(=O)[C@H](C)NC(=O)[C@H](CC(=O)O)NC(=O)[C@H](CC(=O)O)NC1=O [I-77, Ac-Phe-Asp-Ala-R8-Asp-Asp-Ala-Ala-3FF-Val-PyrS-Phe-Trp-Gln-NH2]		1.28	
CC(=O)N1CCC[C@]12CC=CCCCC1(CCCC=CCCCCCC[C@@](C)(C(=O)N[C@@H](Cc3ccccc3)C(=O)N[C@@H](Cc3csc4ccccc34)C(=O)N[C@@H](CCC(N)=O)C(N)=O)NC(=O)[C@H](C(C)C)NC(=O)[C@H](Cc3ccccc3)NC(=O)[C@H](C)NC(=O)[C@H](C)NC(=O)[C@H](CCc3ccccc3)NC(=O)[C@H](CC(=O)O)NC1=O)NC(=O)[C@H](C)NC(=O)[C@H](CC(=O)O)NC2=O (stereo partly drawn) [I-301, Ac-PL3-Asp-Ala-B5-Asp-hPhe-Ala-Ala-Phe-Val-S8-Phe-BztA-Gln-NH2]		3.26	
CCCC[C@@H]1NC(=O)[C@H](CC(=O)O)NC(=O)[C@](C)(NC(=O)[C@H](C)NC(=O)[C@H](CC(=O)O)NC(=O)[C@H](Cc2ccccc2)NC(C)=O)CCCCCCC=CCOC(=O)N2CC[C@@](C(=O)N[C@@H](Cc3ccccc3)C(=O)N[C@@H](Cc3c[nH]c4ccccc34)C(=O)N[C@@H](CCC(N)=O)C(N)=O)(C2)NC(=O)[C@H](C(C)C)NC(=O)[C@H](Cc2ccccc2)NC(=O)[C@H](C)NC(=O)[C@H](C)NC1=O [I-14, Ac-Phe-Asp-Ala-R8-Asp-nLeu-Ala-Ala-Phe-Val-PyrS-Phe-Trp-Gln-NH2]	2.013		
CC(=O)N1CCC[C@]12CC=CCCCC1(CCCC=CCCCCCC[C@@](C)(C(=O)N[C@@H](Cc3ccccc3)C(=O)N[C@@H](Cc3c[nH]c4ccccc34)C(=O)N[C@@H](CO)C(N)=O)NC(=O)[C@H](C(C)C)NC(=O)[C@H](Cc3ccccc3)NC(=O)[C@H](C)NC(=O)[C@H](C)NC(=O)[C@H](CC(=O)O)NC(=O)[C@H](CC(=O)O)NC1=O)NC(=O)[C@H](C)NC(=O)[C@H](CC(=O)O)NC2=O (single isomer, unassigned) [I-335, Ac-PL3-Asp-Ala-B5-Asp-Asp-Ala-Ala-Phe-Val-S8-Phe-WCHO-Ser-NH2]	1.928		
CC(=O)N[C@@H](Cc1ccccc1)C(=O)N[C@@H](CC(=O)O)C(=O)N[C@@H](C)C(=O)N[C@]1(C)CCCCCCC=CCOC(=O)N2CC[C@@](C(=O)N[C@@H](Cc3cccnc3)C(=O)N[C@@H](Cc3c[nH]c4ccccc34)C(=O)N[C@@H](CCC(N)=O)C(N)=O)(C2)NC(=O)[C@H](C(C)C)NC(=O)[C@H](Cc2ccccc2)NC(=O)[C@H](C)NC(=O)[C@H](C)NC(=O)[C@H](CC(=O)O)NC(=O)[C@H](CC(=O)O)NC1=O (single isomer, unassigned) [I-82, Ac-Phe-Asp-Ala-R8-Asp-Asp-Ala-Ala-Phe-Val-PyrS-3PyrA-Trp-Gln-NH2]		1	
CC(=O)N1CCC[C@]12CC=CCCCC1(CCCC=CCCCCCC[C@@](C)(C(=O)N[C@@H](Cc3ccccc3)C(=O)N[C@@H](Cc3ccc(-c4ccccc4)cc3)C(=O)N[C@@H](CCC(N)=O)C(N)=O)NC(=O)[C@H](C(C)C)NC(=O)[C@H](Cc3ccccc3)NC(=O)[C@H](C)NC(=O)[C@H](C)NC(=O)[C@H](CCC(=O)O)NC(=O)[C@H](CC(=O)O)NC1=O)NC(=O)[C@H](C)NC(=O)[C@H](CC(=O)O)NC2=O (stereo partly drawn) [I-145, Ac-PL3-Asp-Ala-B5-Asp-Glu-Ala-Ala-Phe-Val-S8-Phe-Bip-Gln-NH2]		2.28	
CCCC[C@@H]1NC(=O)[C@H](CC(=O)O)NC(=O)[C@](C)(NC(=O)[C@@H](NC(=O)[C@H](CC(=O)O)NC(=O)[C@H](C)NC(C)=O)[C@@H](C)CC)CCN(C)C(=O)OCC=CCCCCC[C@@](C)(C(=O)N[C@@H](Cc2ccccc2)C(=O)N[C@@H](Cc2c[nH]c3ccccc23)C(=O)N[C@@H](Cc2c[nH]cn2)C(N)=O)NC(=O)[C@H](CCC(N)=O)NC(=O)[C@H](Cc2ccccc2)NC(=O)[C@H](C)NC(=O)[C@H](C)NC1=O [I-68, Ac-Ala-Asp-Ile-RdN-Asp-nLeu-Ala-Ala-Phe-Gln-S7-Phe-Trp-His-NH2]	1.553		
CC(=O)N1CCC[C@]12CC=CCCCC1(CCCC=CCCCCCC[C@@](C)(C(=O)N[C@@H](Cc3ccccc3)C(=O)N[C@@H](Cc3c[nH]c4ccccc34)C(=O)N[C@@H](CCC(N)=O)C(N)=O)NC(=O)[C@H](C(C)C)NC(=O)[C@H](Cc3ccccc3)NC(=O)[C@H](C)NC(=O)[C@H](C)NC(=O)[C@H](CC(=O)O)NC(=O)[C@H](CC(=O)O)NC1=O)NC(=O)[C@H](C)NC(=O)[C@H](CCC(=O)O)NC2=O (stereo partly drawn) [I-280, Ac-PL3-Glu-Ala-B5-Asp-Asp-Ala-Ala-Phe-Val-S8-Phe-Trp-Gln-NH2]	1.991		
CC(=O)N[C@@H](Cc1ccccc1)C(=O)N[C@@H](CC(=O)O)C(=O)N[C@@H](C)C(=O)N[C@]1(C)CCCCCCC=CCOC(=O)N2CC[C@@](C(=O)N[C@@H](Cc3ccccc3)C(=O)N[C@@H](Cc3c[nH]c4ccccc34)C(=O)N[C@@H](CCC(N)=O)C(N)=O)(C2)NC(=O)[C@H](C(C)C)NC(=O)[C@H](Cc2ccccc2)NC(=O)[C@H](CC(=O)O)NC(=O)[C@H](C)NC(=O)[C@H](CC(=O)O)NC(=O)[C@H](CC(=O)O)NC1=O (single isomer, unassigned) [I-19, Ac-Phe-Asp-Ala-R8-Asp-Asp-Ala-Asp-Phe-Val-PyrS-Phe-Trp-Gln-NH2]		0.948	
CC(=O)N[C@@H](Cc1ccccc1)C(=O)N[C@@H](CC(=O)O)C(=O)N[C@@H](C)C(=O)N[C@]1(C)CCCCCCC=CCOC(=O)N2CC[C@@](C(=O)N[C@@H](Cc3ccccc3C(N)=O)C(=O)N[C@@H](Cc3c[nH]c4ccccc34)C(=O)N[C@@H](CCC(N)=O)C(N)=O)(C2)NC(=O)[C@H](C(C)C)NC(=O)[C@H](Cc2ccccc2)NC(=O)[C@H](C)NC(=O)[C@H](C)NC(=O)[C@H](CC(=O)O)NC(=O)[C@H](CC(=O)O)NC1=O (single isomer, unassigned) [I-106, Ac-Phe-Asp-Ala-R8-Asp-Asp-Ala-Ala-Phe-Val-PyrS-2CBMF-Trp-Gln-NH2]	1.038		
CC(=O)NC(C)(C)C(=O)N[C@@H](CC(=O)O)C(=O)N[C@@H](C)C(=O)N[C@]1(C)CCCCCCC=CCOC(=O)N2CC[C@@](C(=O)N[C@@H](Cc3ccccc3)C(=O)N[C@@H](Cc3c[nH]c4ccccc34)C(=O)NC(C)(C)C(N)=O)(C2)NC(=O)[C@H](C(C)C)NC(=O)[C@H](Cc2ccccc2)NC(=O)[C@H](C)NC(=O)[C@H](C)NC(=O)[C@H](CCC(=O)O)NC(=O)[C@H](CC(=O)O)NC1=O [I-159, Ac-Aib-Asp-Ala-R8-Asp-Glu-Ala-Ala-Phe-Val-PyrS-Phe-Trp-Aib-NH2]	1.452		
CC(=O)N1CCC[C@]12CC=CCCCC1(CCCC=CCCCCCC[C@@](C)(C(=O)N[C@@H](Cc3ccccc3)C(=O)N[C@@H](Cc3c[nH]c4ccccc34)C(=O)N[C@@H](CCC(N)=O)C(N)=O)NC(=O)[C@H](C(C)C)NC(=O)[C@H](Cc3ccccc3)NC(=O)[C@H](C)NC(=O)[C@H](C)NC(=O)[C@H](CCC(=O)O)NC(=O)[C@H](CC(=O)O)NC1=O)NC(=O)[C@H](C)NC(=O)[C@H](Cc1c[nH]cn1)NC2=O (single isomer, unassigned) [I-314, Ac-PL3-His-Ala-B5-Asp-Glu-Ala-Ala-Phe-Val-S8-Phe-Trp-Gln-NH2]		2.34	
CC(=O)N1CCC[C@]12CC=CCCCC1(CCCC=CCCCCCC[C@@](C)(C(=O)N[C@@H](Cc3ccsc3)C(=O)N[C@@H](Cc3csc4ccccc34)C(=O)N[C@@H](CCC(N)=O)C(=O)N[C@H](C)C(=O)N[C@@H](C)C(=O)N[C@@H](C)C(N)=O)NC(=O)[C@H](CC(N)=O)NC(=O)[C@H](Cc3ccccc3)NC(=O)[C@H](C)NC(=O)[C@H](C)NC(=O)[C@H](CC(=O)O)NC(=O)[C@H](CC(=O)O)NC1=O)NC(=O)[C@H](CC(C)(C)C)NC(=O)[C@H](CC(=O)O)NC2=O (stereo partly drawn) [I-875, Ac-PL3-Asp-Npg-B5-Asp-Asp-Ala-Ala-Phe-Asn-S8-3Thi-BztA-Gln-dAla-Ala]			logD (pH 7.4, CHI Log D): 2.21
CC(=O)N1CCC[C@]12CC=CCCCC1(CCCC=CCCCCCC[C@@](C)(C(=O)N[C@@H](Cc3ccc(F)c(F)c3)C(=O)N[C@@H](Cc3c[nH]c4ccccc34)C(=O)N[C@@H](CCC(N)=O)C(N)=O)NC(=O)[C@H](C(C)C)NC(=O)[C@H](Cc3ccccc3)NC(=O)[C@H](C)NC(=O)[C@H](C)NC(=O)[C@H](CC(=O)O)NC(=O)[C@H](CC(=O)O)NC1=O)NC(=O)[C@H](C)NC(=O)[C@H](CC(=O)O)NC2=O (stereo partly drawn) [I-263, Ac-PL3-Asp-Ala-B5-Asp-Asp-Ala-Ala-Phe-Val-S8-34FF-Trp-Gln-NH2]	2.128		
